From ChEMBL document CHEMBL6127104, “Prorocentin-5: A Cytotoxic Polyketide from the Benthic Marine Dinoflagellate Prorocentrum lima” (J Nat Prod, 2024)

Columns and labels:
Type in all cases: functional
HCT-116 [1] = test: Induction of apoptosis in human HCT-116 cells assessed as early apoptotic cells at 0.1 uM incubated for 24 hrs by Annexin V-FITC/PI staining based flow cytometric analysis (reference value: 1.90 %)
HCT-116 [2] = test: Induction of apoptosis in human HCT-116 cells assessed as late apoptotic cells at 0.1 uM incubated for 24 hrs by Annexin V-FITC/PI staining based flow cytometric analysis (reference value: 6.15 %)
HCT-116 [3] = test: Induction of apoptosis in human HCT-116 cells assessed as necrotic cells at 0.1 uM incubated for 24 hrs by Annexin V-FITC/PI staining based flow cytometric analysis (reference value: 1.45 %)
HCT-116 [4] = test: Induction of apoptosis in human HCT-116 cells assessed as early apoptotic cells at 1 uM incubated for 24 hrs by Annexin V-FITC/PI staining based flow cytometric analysis (reference value: 1.90 %)
HCT-116 [5] = test: Induction of apoptosis in human HCT-116 cells assessed as late apoptotic cells at 1 uM incubated for 24 hrs by Annexin V-FITC/PI staining based flow cytometric analysis (reference value: 6.15 %)
HCT-116 [6] = test: Induction of apoptosis in human HCT-116 cells assessed as necrotic cells at 1 uM incubated for 24 hrs by Annexin V-FITC/PI staining based flow cytometric analysis (reference value: 1.45 %)
N2a [7] = test: Induction of apoptosis in mouse Neuro2a cells assessed as early apoptotic cells at 0.1 uM incubated for 24 hrs by Annexin V-FITC/PI staining based analysis (reference value: 3.17 %)
N2a [8] = test: Induction of apoptosis in mouse Neuro2a cells assessed as late apoptotic cells at 0.1 uM incubated for 24 hrs by Annexin V-FITC/PI staining based analysis (reference value: 0.81 %)
N2a [9] = test: Induction of apoptosis in mouse Neuro2a cells assessed as necrotic cells at 0.1 uM incubated for 24 hrs by Annexin V-FITC/PI staining based analysis (reference value: 4.33 %)
N2a [10] = test: Induction of apoptosis in mouse Neuro2a cells assessed as early apoptotic cells at 1 uM incubated for 24 hrs by Annexin V-FITC/PI staining based analysis (reference value: 3.17 %)
N2a [11] = test: Induction of apoptosis in mouse Neuro2a cells assessed as late apoptotic cells at 1 uM incubated for 24 hrs by Annexin V-FITC/PI staining based analysis (reference value: 0.81 %)
HepG2 [12] = test: Induction of apoptosis in human HepG2 cells assessed as viable cells at 0.1 uM incubated for 24 hrs by Annexin V-FITC/PI staining based flow cytometric analysis (reference value: 90.08 %); details: read-out: Activity
HepG2 [13] = test: Induction of apoptosis in human HepG2 cells assessed as early apoptotic cells at 0.1 uM incubated for 24 hrs by Annexin V-FITC/PI staining based flow cytometric analysis (reference value: 4.85 %)
HepG2 [14] = test: Induction of apoptosis in human HepG2 cells assessed as viable cells at 1 uM incubated for 24 hrs by Annexin V-FITC/PI staining based flow cytometric analysis (reference value: 90.08 %); details: read-out: Activity
HepG2 [15] = test: Induction of apoptosis in human HepG2 cells assessed as early apoptotic cells at 1 uM incubated for 24 hrs by Annexin V-FITC/PI staining based flow cytometric analysis (reference value: 4.85 %)
HepG2 [16] = test: Induction of apoptosis in human HepG2 cells assessed as late apoptotic cells at 1 uM incubated for 24 hrs by Annexin V-FITC/PI staining based flow cytometric analysis (reference value: 2.05 %)
HCT-116 [17] = test: Induction of apoptosis in human HCT-116 cells assessed as fold increase in early apoptotic cells at 1 uM incubated for 24 hrs by Annexin V-FITC/PI staining based analysis
N2a [18] = test: Induction of apoptosis in mouse Neuro2a cells assessed as fold increase in early apoptotic cells at 1 uM incubated for 24 hrs by Annexin V-FITC/PI staining based analysis
HCT-116 [19] = test: Induction of apoptosis in human HCT-116 cells assessed as fold increase in late apoptotic cells at 1 uM incubated for 24 hrs by Annexin V-FITC/PI staining based analysis
N2a [20] = test: Induction of apoptosis in mouse Neuro2a cells assessed as fold increase in late apoptotic cells at 1 uM incubated for 24 hrs by Annexin V-FITC/PI staining based analysis
HepG2 [21] = test: Induction of apoptosis in human HepG2 cells assessed as fold increase in late apoptotic cells at 1 uM incubated for 24 hrs by Annexin V-FITC/PI staining based flow cytometric analysis
HCT-116 [22] = test: Induction of cell cycle arrest in human HCT-116 cells assessed as accumulation of cells at G2/M phase at 0.1 uM incubated for 24 hrs by flow cytometric analysis (reference value: 30.6 %)
HCT-116 [23] = test: Induction of cell cycle arrest in human HCT-116 cells assessed as accumulation of cells at G0/G1 phase at 1 uM incubated for 24 hrs by flow cytometric analysis (reference value: 90.2 %)
HCT-116 [24] = test: Induction of cell cycle arrest in human HCT-116 cells assessed as accumulation of cells at S phase at 1 uM incubated for 24 hrs by flow cytometric analysis (reference value: 19.2 %)
N2a [25] = test: Induction of cell cycle arrest in mouse Neuro2a cells assessed as accumulation of cells at G0/G1 phase at 0.1 uM incubated for 24 hrs by flow cytometric analysis (reference value: 61.5 %)
N2a [26] = test: Induction of cell cycle arrest in mouse Neuro2a cells assessed as accumulation of cells at G2/M phase at 0.1 uM incubated for 24 hrs by flow cytometric analysis (reference value: 8.0 %)
N2a [27] = test: Induction of cell cycle arrest in mouse Neuro2a cells assessed as accumulation of cells at G0/G1 phase at 1 uM incubated for 24 hrs by flow cytometric analysis (reference value: 61.5 %)
N2a [28] = test: Induction of cell cycle arrest in mouse Neuro2a cells assessed as accumulation of cells at S phase at 1 uM incubated for 24 hrs by flow cytometric analysis (reference value: 30.5 %)
HepG2 [29] = test: Induction of cell cycle arrest in human HepG2 cells assessed as accumulation of cells at G2/M phase at 0.1 uM incubated for 24 hrs by flow cytometric analysis (reference value: 6.7 %)
HepG2 [30] = test: Induction of cell cycle arrest in human HepG2 cells assessed as accumulation of cells at G0/G1 phase at 0.1 uM incubated for 24 hrs by flow cytometric analysis (reference value: 66.4 %)
HepG2 [31] = test: Induction of cell cycle arrest in human HepG2 cells assessed as accumulation of cells at G0/G1 phase at 1 uM incubated for 24 hrs by flow cytometric analysis (reference value: 66.4 %)
HepG2 [32] = test: Induction of cell cycle arrest in human HepG2 cells assessed as accumulation of cells at S phase at 1 uM incubated for 24 hrs by flow cytometric analysis (reference value: 27.8 %)
HepG2 [33] = test: Induction of cell cycle arrest in human HepG2 cells assessed as accumulation of cells at G2/M phase at 1 uM incubated for 24 hrs by flow cytometric analysis (reference value: 27.8 %)

Row | Structure (SMILES) | Activity (HCT-116 [1]) [%] | Activity (HCT-116 [2]) [%] | Activity (HCT-116 [3]) [%] | Activity (HCT-116 [4]) [%] | Activity (HCT-116 [5]) [%] | Activity (HCT-116 [6]) [%] | Activity (N2a [7]) [%] | Activity (N2a [8]) [%] | Activity (N2a [9]) [%] | Activity (N2a [10]) [%] | Activity (N2a [11]) [%] | viability at 0.1 µM (HepG2 [12]) [%] | Activity (HepG2 [13]) [%] | viability at 1 µM (HepG2 [14]) [%] | Activity (HepG2 [15]) [%] | Activity (HepG2 [16]) [%] | fold change (FC) (HCT-116 [17]) | fold change (FC) (N2a [18]) | fold change (FC) (HCT-116 [19]) | fold change (FC) (N2a [20]) | also measured
1 | CC(=O)CCCCC[C@@H](O)[C@H](C)C[C@H](C)CC[C@@H]1O[C@H]1C[C@@H]1CC[C@@H](/C=C/C=C/C[C@H](O)C[C@H]2C=C[C@@H](C=C(C)C)O2)O1 | 4.9 | 14.55 | 5.4 | 5.15 | 17.52 | 18.45 | 15.67 | 7.2 | 1.16 | 17.3 | 24.75 | 52.2 | 30.92 | 49.8 | 27.87 | 20.59 | 2.7 | 5.5 | 2.9 | 30.7 | fold change (FC) (HepG2 [21]): 10; Activity (HCT-116 [22]): 31.9%; Activity (HCT-116 [23]): 6.8%; Activity (HCT-116 [24]): 26%; Activity (N2a [25]): 51.5%; Activity (N2a [26]): 10.4%; Activity (N2a [27]): 43.2%; Activity (N2a [28]): 43.1%; Activity (HepG2 [29]): 10.5%; Activity (HepG2 [30]): 54.5%; Activity (HepG2 [31]): 52.3%; Activity (HepG2 [32]): 34.7%; Activity (HepG2 [33]): 13%
2 | C=C1[C@@H](O)[C@@H]2O[C@]3(CC[C@H](/C=C/[C@@H](C)[C@@H]4CC(C)=C[C@@]5(O[C@H](C[C@@](C)(O)C(=O)O)CC[C@H]5O)O4)O3)CC[C@H]2O[C@@H]1[C@@H](O)C[C@H](C)[C@H]1O[C@@]2(CCCCO2)CC[C@H]1C [OKADAIC ACID] | 0.8 | 7.55 | 12.45 | 3.65 | 16.9 | 19.75 | 10.91 | 7.75 | 4.9 | 29.01 | 10.7 | 52.7 | 13.5 | 50.9 | 23.72 | 22.44 | 1.9 | 9.2 | 2.8 | 13.2 | fold change (FC) (HepG2 [21]): 11; Activity (HCT-116 [22]): 44.6%; Activity (HCT-116 [23]): 55.5%; Activity (HCT-116 [24]): 23.9%; Activity (N2a [25]): 30.4%; Activity (N2a [26]): 13%; Activity (N2a [27]): 36%; Activity (N2a [28]): 55%; Activity (HepG2 [29]): 14.6%; Activity (HepG2 [30]): 48.5%; Activity (HepG2 [31]): 49.5%; Activity (HepG2 [32]): 37.2%; Activity (HepG2 [33]): 13.3%
